Experimental data taken from patent US20230346709A1, “TABLET CONTAINING VALSARTAN AND SACUBITRIL” (ALFRED E. TIEFENBACHER (GMBH & CO. KG), priority 2017, published 2023).

Experiment: Storage stability of the tablets, solid form of the active ingredients by powder XRD
Format: physicochemical
Conditions: after storage in Alu-Alu blister, three months at 40° C./75% RH
Method: The XRD measurements were performed using X-ray source with Cu K-alpha radiation, Empyrean system (or equivalent), PIXcel detector, divergence slit 0.25° fixed, anti-scattering slit 0.5°, soller slits 2×0.02 radians, Nickel filter to suppress back ground and Cu K-beta components, current 40 mA, voltage 45 kV, 2° - 40 ° 2θ, spinning 30 RPM, step size 0.013° with total measurement time 1 Hr at room temperature. 1. Grind about two tablets to fine powder using Agate mortar and pestle gently. Prepare the sample (approx. 350 mg) using PANalytical sample preparation kit by ‘Back loading technique’. The sample surface should be smooth and in parallel to sample holder surface. Clean the outer edges of the holder with tissue paper to avoid sample contaminations. 2. Place the prepared sample holder carefully on the sample stage of the XRD instrument and analyze as per the above XRD method conditions at room temperature.

| Structure (SMILES) | change of solid form of the active ingredient in the tablets, powder XRD |
| --- | --- |
| CCCCC(=O)N(Cc1ccc(-c2ccccc2-c2nnn[n-]2)cc1)[C@H](C(=O)[O-])C(C)C.CCOC(=O)[C@H](C)C[C@@H](Cc1ccc(-c2ccccc2)cc1)NC(=O)CCC(=O)[O-].O.[Na+].[Na+].[Na+] [LCZ696] | no crystallization |
| CCOC(=O)[C@H](C)C[C@@H](Cc1ccc(-c2ccccc2)cc1)NC(=O)CCC(=O)O [sacubitril monosodium] | no polymorph conversion or amorphization |
| CCCCC(=O)N(Cc1ccc(-c2ccccc2-c2nnn[nH]2)cc1)[C@H](C(=O)O)C(C)C [valsartan disodium] | no crystallization |
